Measurements reported in patent US11242334B2, “Heterocyclic compounds as kinase inhibitors, compositions comprising the heterocyclic compound, and methods of use thereof” (JS INNOPHARM (SHANGHAI) LTD, priority 2017, dated 2022).

Columns and labels:
human ERK2 = target: T1, human ERK2 (Homo sapiens, UniProt P28482); test: LanthaScreen TR-FRET enzymatic assay, ERK2; settings: IC50 values of ERK2 biochemical activity; 5 μM ATP, 400 nM ATF2-GFP substrate
T1 construct: recombinantly expressed as GST-tagged full-length protein purified from E. coli; GST; purchased Invitrogen PV3311; host or cells: E. coli
How it was run: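 IC50 values were fitted from percent of DMSO control using a 520/495 nm TR-FRET ratio with terbium anti-pATF2 (pThr71), read after an EDTA stop. The kinase reaction lasted one hour at room temperature, following 15-min compound pre-treatment. It contained 5 μM ATP, 400 nM ATF2-GFP substrate and 20 ng/ml in vitro-activated GST-ERK2.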

Colo205 cell line = test: Colo205 cell proliferation assay (MTT assay, WST-8 readout); format: cell-based; settings: Homo sapiens; IC50 values of growth inhibition in Colo 205 cells; 72 hours
How it was run: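 Growth-inhibition IC50 was derived from WST-8 absorbance at 450 nm (2 h development) after 72 h compound exposure at 37° C. Exposure used final 50 μM–0.005 μM compound in 0.5% DMSO. Colo205 cells had been plated at 5,000/well in RPMI-1640 plus 10% FBS and allowed 24 h to attach.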

T1 sequence (P28482 whole entry): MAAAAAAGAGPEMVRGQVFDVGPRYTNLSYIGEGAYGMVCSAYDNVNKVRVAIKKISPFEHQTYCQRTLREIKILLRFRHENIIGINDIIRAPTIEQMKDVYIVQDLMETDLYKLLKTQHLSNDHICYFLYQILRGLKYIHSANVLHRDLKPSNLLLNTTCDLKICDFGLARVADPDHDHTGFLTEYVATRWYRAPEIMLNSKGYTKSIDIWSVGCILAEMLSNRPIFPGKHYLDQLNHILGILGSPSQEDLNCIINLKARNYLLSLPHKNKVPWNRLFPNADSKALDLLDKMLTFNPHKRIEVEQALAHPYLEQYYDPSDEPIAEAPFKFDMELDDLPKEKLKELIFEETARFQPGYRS

| Compound | IC50 (human ERK2) | IC50 (Colo205 cell line) |
| --- | --- | --- |
| Cn1cc(-c2n[nH]c3ccc(-c4ccn([C@H](CO)c5cccc(Br)c5)c(=O)c4)cc23)cn1 [Example 45, (S)-1-(1-(3-bromophenyl)-2-hydroxyethyl)-4-(3-(1-methyl-1H-pyrazol-4-yl)-1H-indazol-5-yl)pyridin-2(1H)-one] | < 10 nM | ≤ 500 nM |
| Cn1cc(-c2n[nH]c3ccc(-c4ccn([C@H](CO)c5ccc(F)c(Br)c5)c(=O)c4)cc23)cn1 [Example 46, (S)-1-(1-(3-bromo-4-fluorophenyl)-2-hydroxyethyl)-4-(3-(1-methyl-1H-pyrazol-4-yl)-1H-indazol-5-yl)pyridin-2(1H)-one] | < 10 nM | ≤ 500 nM |
| Cn1cc(-c2n[nH]c3ccc(-c4ccn([C@H](CO)c5cccc(I)c5)c(=O)c4)cc23)cn1 [Example 47, (S)-1-(2-hydroxy-1-(3-iodophenyl)ethyl)-4-(3-(1-methyl-1H-pyrazol-4-yl)-1H-indazol-5-yl)pyridin-2(1H)-one] | < 10 nM | ≤ 500 nM |
| CC(C)Oc1ccc(-c2n[nH]c3ccc(-c4ccn([C@H](CO)c5cccc(I)c5)c(=O)c4)cc23)cn1 [Example 48, (S)-1-(2-hydroxy-1-(3-iodophenyl)ethyl)-4-(3-(6-isopropoxypyridin-3-yl)-1H-indazol-5-yl)pyridin-2(1H)-one] | < 10 nM | 500 to 1000 nM |
| Cc1cc(-c2n[nH]c3ccc(-c4ccn([C@H](CO)c5cccc(I)c5)c(=O)c4)cc23)ccn1 [Example 49, (S)-1-(2-hydroxy-1-(3-iodophenyl)ethyl)-4-(3-(2-methylpyridin-4-yl)-1H-indazol-5-yl)pyridin-2(1H)-one] | < 10 nM | ≤ 500 nM |
| O=c1cc(-c2ccc3[nH]nc(-c4cnn(C5CC5)c4)c3c2)ccn1[C@H](CO)c1ccc(F)c(Cl)c1 [Example 50, (S)-1-(1-(3-chloro-4-fluorophenyl)-2-hydroxyethyl)-4-(3-(1-cyclopropyl-1H-pyrazol-4-yl)-1H-indazol-5-yl)pyridin-2(1H)-one] | < 10 nM | 500 to 1000 nM |
| O=c1cc(-c2ccc3[nH]nc(-c4cnn(C(F)F)c4)c3c2)ccn1[C@H](CO)c1ccc(F)c(Cl)c1 [Example 51, (S)-1-(1-(3-chloro-4-fluorophenyl)-2-hydroxyethyl)-4-(3-(1-(difluoromethyl)-1H-pyrazol-4-yl)-1H-indazol-5-yl)pyridin-2(1H)-one] | < 10 nM | ≤ 500 nM |
| COCCn1cc(-c2n[nH]c3ccc(-c4ccn([C@H](CO)c5ccc(F)c(Cl)c5)c(=O)c4)cc23)cn1 [Example 52, (S)-1-(1-(3-chloro-4-fluorophenyl)-2-hydroxyethyl)-4-(3-(1-(2-methoxyethyl)-1H-pyrazol-4-yl)-1H-indazol-5-yl)pyridin-2(1H)-one] | < 10 nM | 1000 to 5000 nM |
| Cc1cc(-c2n[nH]c3ccc(-c4ccn(Cc5cccc(Cl)c5)c(=O)c4)cc23)ccn1 [Example 53, 1-(3-chlorobenzyl)-4-(3-(2-methylpyridin-4-yl)-1H-indazol-5-yl)pyridin-2(1H)-one] | < 10 nM | 500 to 1000 nM |
| Cc1cc(-c2n[nH]c3ccc(-c4ccn(Cc5cc(Br)ccc5F)c(=O)c4)cc23)ccn1 [Example 55, 1-(5-bromo-2-fluorobenzyl)-4-(3-(2-methylpyridin-4-yl)-1H-indazol-5-yl)pyridin-2(1H)-one] | < 10 nM | ≤ 500 nM |

Next, values leading:

| IC50 (human ERK2) | IC50 (Colo205 cell line) | Compound |
| --- | --- | --- |
| < 10 nM | 500 to 1000 nM | Cc1cc(-c2n[nH]c3ccc(-c4ccn(Cc5ccc(F)c(Br)c5)c(=O)c4)cc23)ccn1 [Example 56, 1-(3-bromo-4-fluorobenzyl)-4-(3-(2-methylpyridin-4-yl)-1H-indazol-5-yl)pyridin-2(1H)-one] |
| < 10 nM | ≤ 500 nM | Cc1cc(-c2n[nH]c3ccc(-c4ccn(Cc5cccc(I)c5)c(=O)c4)cc23)ccn1 [Example 57, 1-(3-iodobenzyl)-4-(3-(2-methylpyridin-4-yl)-1H-indazol-5-yl)pyridin-2(1H)-one] |
| < 10 nM | 500 to 1000 nM | Cc1cc(-c2n[nH]c3ccc(-c4ccn(Cc5cc(F)cc(Cl)c5)c(=O)c4)cc23)ccn1 [Example 58, 1-(3-chloro-5-fluorobenzyl)-4-(3-(2-methylpyridin-4-yl)-1H-indazol-5-yl)pyridin-2(1H)-one] |
| < 10 nM | 1000 to 5000 nM | Cc1cc(-c2n[nH]c3ccc(-c4ccn(Cc5ccccc5C(F)(F)F)c(=O)c4)cc23)ccn1 [Example 59, 4-(3-(2-methylpyridin-4-yl)-1H-indazol-5-yl)-1-(2-(trifluoromethyl)benzyl)pyridin-2(1H)-one] |
| < 10 nM | 500 to 1000 nM | Cc1cc(-c2n[nH]c3ccc(-c4ccn(Cc5ccccc5)c(=O)c4)cc23)ccn1 [Example 60, 1-benzyl-4-(3-(2-methylpyridin-4-yl)-1H-indazol-5-yl)pyridin-2(1H)-one] |
| < 10 nM | 500 to 1000 nM | Cc1cc(-c2n[nH]c3ccc(-c4ccn(Cc5ccc(F)c(F)c5)c(=O)c4)cc23)ccn1 [Example 61, 1-(3,4-difluorobenzyl)-4-(3-(2-methylpyridin-4-yl)-1H-indazol-5-yl)pyridin-2(1H)-one] |
| < 10 nM | 500 to 1000 nM | Cc1cc(-c2n[nH]c3ccc(-c4ccn(Cc5ccc(Cl)c(F)c5)c(=O)c4)cc23)ccn1 [Example 62, 1-(4-chloro-3-fluorobenzyl)-4-(3-(2-methylpyridin-4-yl)-1H-indazol-5-yl)pyridin-2(1H)-one] |
| < 10 nM | 500 to 1000 nM | Cc1cc(-c2n[nH]c3ccc(-c4ccn(Cc5cccc(Cl)c5F)c(=O)c4)cc23)ccn1 [Example 63, 1-(3-chloro-2-fluorobenzyl)-4-(3-(2-methylpyridin-4-yl)-1H-indazol-5-yl)pyridin-2(1H)-one] |
| < 10 nM | 1000 to 5000 nM | Cc1cc(-c2n[nH]c3ccc(-c4ccn(Cc5ccc(C#N)cc5)c(=O)c4)cc23)ccn1 [Example 64, 4-((4-(3-(2-methylpyridin-4-yl)-1H-indazol-5-yl)-2-oxopyridin-1(2H)-yl)methyl)benzonitrile] |
| < 10 nM | 500 to 1000 nM | Cc1cc(-c2n[nH]c3ccc(-c4ccn(Cc5ccc(F)c(Cl)c5)c(=O)c4)cc23)ccn1 [Example 65, 1-(3-chloro-4-fluorobenzyl)-4-(3-(2-methylpyridin-4-yl)-1H-indazol-5-yl)pyridin-2(1H)-one] |
| < 10 nM | 500 to 1000 nM | Cc1cc(-c2n[nH]c3ccc(-c4ccn(Cc5cc(Cl)ccc5F)c(=O)c4)cc23)ccn1 [Example 66] |
| < 10 nM | 1000 to 5000 nM | Cc1cc(-c2n[nH]c3ccc(-c4ccn(Cc5cccc(OC(F)(F)F)c5)c(=O)c4)cc23)ccn1 [Example 67, 4-(3-(2-methylpyridin-4-yl)-1H-indazol-5-yl)-1-(3-(trifluoromethoxy)benzyl)pyridin-2(1H)-one] |
| < 10 nM | 1000 to 5000 nM | Cc1cc(-c2n[nH]c3ccc(-c4ccn(Cc5cccc(F)c5)c(=O)c4)cc23)ccn1 [Example 68, 1-(3-fluorobenzyl)-4-(3-(2-methylpyridin-4-yl)-1H-indazol-5-yl)pyridin-2(1H)-one] |
| < 10 nM | 500 to 1000 nM | Cc1cc(-c2n[nH]c3ccc(-c4ccn(Cc5ccc(Br)c(F)c5)c(=O)c4)cc23)ccn1 [Example 69, 1-(4-bromo-3-fluorobenzyl)-4-(3-(2-methylpyridin-4-yl)-1H-indazol-5-yl)pyridin-2(1H)-one] |
